Key:
Assay type in all cases: binding
[1] = molecular target: T1, human serotonin transporter (hSERT) (Homo sapiens, UniProt P31645); experiment: Human serotonin transporter (hSERT) scintillation proximity assay, competition with [3H]-Citalopram; conditions: membranes of HEK-293 cells expressing recombinant hSERT, Ki by Cheng-Prusoff
T1 construct: expressed in transfected cells; host or cells: HEK-293
Description: The screening assay of this example was used to determine the affinity of ligands at the hSERT transporter by competition with [^3H]-Citalopram.
Scintillation Proximity Assay (SPA) works by bringing radioligand within close proximity to the bead's scintillant to stimulate light emission. In this assay, the receptor-containing membranes were pre-coupled to the SPA beads and the binding of the appropriate radioligand to the transporter was measured. The light emission was proportional to the amount of bound radioligand. Unbound radioligand produced no signal as a result of distant proximity to scintillant (lack of energy transfer). […]
(§1) Cell membranes were prepared using a membrane preparation buffer of 50 mM TRIS (pH 7.4). […] After a second centrifugation, the pellet was re-homogenized and brought to a final volume determined during the assay. […]
The % inhibition was calculated for each compound tested [(Compound counts per minute (CPM) at maximum concentration-Non-Specific CPM)/Total CPM*100]. […]
(§2) [formula] where max=total binding, min=non specific binding, x=concentration (M) of the tested compound and n=Hill slope. The inhibition dissociation constant (Ki) of each compound was determined according to the method of Cheng-Prusoff and then converted into negative logarithm (pKi) of the Ki.

[2] = molecular target: T2, human dopamine transporter (hDAT) (Homo sapiens, UniProt Q01959); experiment: Human dopamine transporter (hDAT) scintillation proximity assay, competition with [3H]-Vanoxerine; conditions: HEK-293 cells expressing recombinant hDAT, Ki by Cheng-Prusoff
T2 construct: expressed in transfected cells; host or cells: HEK-293
T2 sequence (Q01959 whole entry): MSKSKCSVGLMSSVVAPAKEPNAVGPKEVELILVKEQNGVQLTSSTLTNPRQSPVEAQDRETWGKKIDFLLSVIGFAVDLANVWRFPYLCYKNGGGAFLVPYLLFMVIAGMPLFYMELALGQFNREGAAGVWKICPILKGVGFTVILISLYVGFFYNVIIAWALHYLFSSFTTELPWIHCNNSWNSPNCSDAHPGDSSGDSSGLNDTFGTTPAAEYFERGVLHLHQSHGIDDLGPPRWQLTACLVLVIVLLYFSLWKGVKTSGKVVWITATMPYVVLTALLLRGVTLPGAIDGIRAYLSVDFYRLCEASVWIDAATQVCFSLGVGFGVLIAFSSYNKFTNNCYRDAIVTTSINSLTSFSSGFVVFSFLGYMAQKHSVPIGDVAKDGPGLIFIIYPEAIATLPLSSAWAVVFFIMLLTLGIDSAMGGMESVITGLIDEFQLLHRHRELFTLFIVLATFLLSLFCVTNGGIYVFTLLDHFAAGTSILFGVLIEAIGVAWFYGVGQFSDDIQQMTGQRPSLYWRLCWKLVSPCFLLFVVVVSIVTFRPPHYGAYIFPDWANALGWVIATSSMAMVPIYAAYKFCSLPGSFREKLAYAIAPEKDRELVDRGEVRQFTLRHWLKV
Description: This assay was used to determine the affinity of ligands for the dopamine transporter by competition with [^3H]-Vanoxerine.
HEK-293 cells (Tatsumi et al., Eur. J. Pharmacol. 1997, 30, 249-258) stably expressing recombinant hDAT were maintained with media (DMEM hi glucose with 10% FBS, […] G418 and 2 mM L-Glutamine) and incubated at 37° C. with 5% CO2. Cells were plated four hours prior to experiment by placing approximately 30,000 cells per well (in PBS) on white, opaque Cell-Tak coated 96 well plates. Extra buffer was apriated from the cell plates using an ELx405 plate washer.
^3[H] vanoxerine (GBR 12909) radioligand, specific activity approximately 59 Ci/mmol, stock concentration, 400 nM, and 50 mM Tris-HCl, 300 mM NaCl, (pH 7.4) buffers were used for Scintillation Proximity Assay IC50/Ki determination. […]
The % inhibition was calculated for each compound tested [(Compound CPM at maximum concentration-Non-Specific CPM)/Total CPM*100]. […]
as §2

[3] = molecular target: T3, human norepinephrine transporter (hNET) (Homo sapiens, UniProt P23975); experiment: Human norepinephrine transporter (hNET) scintillation proximity assay, competition with [3H]-Nisoxetine; conditions: membranes of HEK-293 cells expressing recombinant hNET, Ki by Cheng-Prusoff
T3 construct: expressed in transfected cells; host or cells: HEK-293 (Clone: HEK-hNET #2)
T3 sequence (P23975 whole entry): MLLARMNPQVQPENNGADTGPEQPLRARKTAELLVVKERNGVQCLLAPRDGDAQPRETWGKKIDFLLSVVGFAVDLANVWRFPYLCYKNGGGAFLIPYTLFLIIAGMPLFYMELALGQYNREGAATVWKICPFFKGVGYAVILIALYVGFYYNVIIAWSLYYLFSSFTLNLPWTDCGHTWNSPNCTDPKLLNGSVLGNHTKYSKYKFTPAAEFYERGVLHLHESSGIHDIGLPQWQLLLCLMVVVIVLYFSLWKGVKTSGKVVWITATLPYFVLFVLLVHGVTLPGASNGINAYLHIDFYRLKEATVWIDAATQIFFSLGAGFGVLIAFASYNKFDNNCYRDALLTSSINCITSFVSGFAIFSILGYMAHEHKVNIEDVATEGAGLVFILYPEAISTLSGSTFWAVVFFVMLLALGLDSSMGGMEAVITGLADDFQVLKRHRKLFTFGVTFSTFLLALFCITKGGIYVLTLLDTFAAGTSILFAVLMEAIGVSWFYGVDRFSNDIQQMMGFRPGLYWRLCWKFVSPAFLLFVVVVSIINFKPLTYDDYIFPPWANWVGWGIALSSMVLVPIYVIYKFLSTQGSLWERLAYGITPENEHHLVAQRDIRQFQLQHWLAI
Description: This assay was used to determine the affinity of ligands for the hNET transporter by competition with [^3H]-Nisoxetine. As in the hSERT assay of the above example, receptor-containing membranes were pre-coupled to the SPA beads and the binding of the appropriate radioligand to the transporter was measured. The light emission was proportional to the amount of bound radioligand, with unbound radioligand producing no signal.
HEK-293 cells (Tatsumi et al., Eur. J. Pharmacol. 1997, 30, 249-258) stably expressing recombinant hNET (Clone: HEK-hNET #2) were maintained with media (DMEM hi glucose with 10% FBS, 300 ug/ml G418 and 2 mM L-Glutamine) and incubated at 37° C. with 5% CO2. Cells were released from culture flasks using PBS for 1-2 minutes. […]
as §1
^3[H] […] The mixtures were allowed to stand at room temperature for one hour, and were then counted on a Packard TopCount LCS, a generic SPA counting protocol settings (Energy Range: Low, Efficiency Mode: Normal, Region A: 1.50-35.00, Region B: 1.50-256.00, Count Time (min.): 0.40, Background Subtract: none, Half-Life Correction: no, Quench Indicator: tSIS, Platemap blank subtraction: No, Cross talk reduction: Off). […]

T1 sequence (P31645 whole entry): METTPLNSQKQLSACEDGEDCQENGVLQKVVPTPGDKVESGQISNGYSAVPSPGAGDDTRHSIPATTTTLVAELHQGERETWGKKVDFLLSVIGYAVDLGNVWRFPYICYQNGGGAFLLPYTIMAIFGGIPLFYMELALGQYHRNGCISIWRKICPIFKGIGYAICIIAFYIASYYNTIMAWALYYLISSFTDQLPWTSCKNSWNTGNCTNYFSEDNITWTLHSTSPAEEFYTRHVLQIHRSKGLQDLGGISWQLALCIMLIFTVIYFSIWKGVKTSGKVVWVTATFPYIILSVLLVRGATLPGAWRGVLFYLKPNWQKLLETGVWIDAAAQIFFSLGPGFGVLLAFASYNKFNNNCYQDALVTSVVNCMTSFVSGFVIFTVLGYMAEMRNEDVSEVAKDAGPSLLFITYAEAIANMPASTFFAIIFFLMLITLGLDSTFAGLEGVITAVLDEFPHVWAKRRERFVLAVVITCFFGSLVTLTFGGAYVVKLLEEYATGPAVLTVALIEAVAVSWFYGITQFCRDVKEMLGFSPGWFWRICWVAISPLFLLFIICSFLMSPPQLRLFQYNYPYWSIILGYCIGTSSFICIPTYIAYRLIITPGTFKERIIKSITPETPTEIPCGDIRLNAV

Ki [1]: ~33.1 nM
Ki [2]: ~14.1 nM
Ki [3]: ~15.5 nM
SMILES: CNC1CCN(c2ccc3[nH]ccc3c2)c2ccccc21 (stereo not drawn) [[1-(1H-Indol-5-yl)-1,2,3,4-tetrahydro-quinolin-4-yl]-methyl-amine]

Source: patent US8318770B2, “Tetrahydroquinoline indole derivatives and uses thereof” (Roche Palo Alto LLC, priority 2009, dated 2012)
